Here are results for four compounds from patent US12234230B2, “Substituted benzyl-triazole compounds for Cbl-b inhibition, and further uses thereof” (Nurix Therapeutics, Inc., priority 2019, dated 2025).

For one assay, the target named is Cbl-b (Homo sapiens (Human), UniProt Q13191). As to the kind of experiment: Cbl-b displacement assay (Cbl-b inhibition assay), Biological Example 1. The class given is binding. The method, then:
The ability of candidate compounds to displace a known inhibitor and thereby inhibit Cbl-b activity was measured by monitoring the interaction of Cbl-b with a fluorophore-labeled probe in the presence of the candidate compound.
Following the one hour incubation, the plates were read for TR-FRET signal at 520/620 nm using an Envision plate reader (Perkin Elmer).

In assay [1] the test system is primary human total T-cells. Nature of the assay: Primary human total T-cell activation (IL-2 secretion, CD25 surface staining), Biological Example 2. The conditions noted are these: fold change over baseline; for CD25 staining CD3/CD28 0.3 μM / IL-2 secretion CD3/CD28 0.3 μM: 0.3 μM inhibitor; for CD25 staining CD3/CD28 0.3 μM / IL-2 secretion CD3/CD28 0.3 μM / CD25 staining CD3/CD28 1 μM / IL-2 secretion CD3/CD28 1 μM: anti-CD3 and anti-CD28 co-stimulation; for CD25 staining CD3/CD28 1 μM / IL-2 secretion CD3/CD28 1 μM / CD25 staining CD3 1 μM / IL-2 secretion CD3 1 μM: 1 μM inhibitor; for CD25 staining CD3 1 μM / IL-2 secretion CD3 1 μM / CD25 staining CD3 3 μM / IL-2 secretion CD3 3 μM: anti-CD3 stimulation alone; for CD25 staining CD3 3 μM / IL-2 secretion CD3 3 μM: 3 μM inhibitor.

[2] abbreviates: 0.125 nM Cbl-b final concentration (Low), read-out: Cbl-b activity IC50 (Low).

Where two headings read alike, the source gives them in different places. A value given as a limit tells only on which side of the number the result lay.

Chain of Cbl-b (Q13191 36-427): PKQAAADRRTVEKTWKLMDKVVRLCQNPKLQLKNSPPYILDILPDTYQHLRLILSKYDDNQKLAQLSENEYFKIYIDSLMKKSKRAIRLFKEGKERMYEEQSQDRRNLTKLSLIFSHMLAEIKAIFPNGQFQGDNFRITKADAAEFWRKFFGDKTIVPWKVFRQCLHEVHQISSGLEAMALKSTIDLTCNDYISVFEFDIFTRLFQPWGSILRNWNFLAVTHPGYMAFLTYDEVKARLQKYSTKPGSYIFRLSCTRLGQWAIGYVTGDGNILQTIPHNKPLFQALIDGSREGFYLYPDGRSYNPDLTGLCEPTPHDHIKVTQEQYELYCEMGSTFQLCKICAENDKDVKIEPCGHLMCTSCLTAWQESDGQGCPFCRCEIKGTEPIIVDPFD

For orientation: IC50 means the concentration that gives 50% inhibition. As for `C[C@H]1CCCN(Cc2cc3c(c(C(F)(F)F)c2)CN(c2cccc([C@]4(c5nncn5C)C[C@H](C#N)C4)c2)C3=O)C1` [Compound 39, (1S,3r)-3-(4-methyl-4H-1,2,4-triazol-3-yl)-3-(3-(6-(((S)-3-methylpiperidin-1-yl)methyl)-1-oxo-4-(trifluoromethyl)isoindolin-2-yl)phenyl)cyclobutane-1-carbonitrile], the IC50 at Cbl-b (setting [2]) was < 5 nM. Besides, in assay [1], the “CD25 staining CD3/CD28 0.3 μM” value is “B (B indicates 1.24-1.39 fold)”, the “IL-2 secretion CD3/CD28 0.3 μM” value was “A (A indicates >35 fold)”, the “CD25 staining CD3/CD28 1 μM” value is given as “B (B indicates 1.24-1.39 fold)” and the “IL-2 secretion CD3/CD28 1 μM” value is listed as “A (A indicates >35 fold)”. Besides, in assay [1], the “CD25 staining CD3 1 μM” value is given as “A (A indicates >2.5 fold)”, the “IL-2 secretion CD3 1 μM” value was “A (A indicates >1.1 fold)”, the “CD25 staining CD3 3 μM” value is listed as “A (A indicates >2.5 fold)” and the “IL-2 secretion CD3 3 μM” value was “A (A indicates >1.1 fold)”.

Regarding `C[C@@H]1CN(Cc2cc3c(c(C(F)(F)F)c2)CN(c2cccc([C@]4(c5nncn5C)C[C@H](CC#N)C4)c2)C3=O)CCC1(F)F` [Compound 51, 2-((1R,3r)-3-(3-(6-(((R)-4,4-difluoro-3-methylpiperidin-1-yl)methyl)-1-oxo-4-(trifluoromethyl)isoindolin-2-yl)phenyl)-3-(4-methyl-4H-1,2,4-triazol-3-yl)cyclobutyl)acetonitrile], on Cbl-b (setting [2]), the IC50 is < 5 nM. Moreover, in assay [1], the “CD25 staining CD3/CD28 0.3 μM” value is listed as “B (B indicates 1.24-1.39 fold)”, the “IL-2 secretion CD3/CD28 0.3 μM” value is reported as “A (A indicates >35 fold)”, the “CD25 staining CD3/CD28 1 μM” value is listed as “B (B indicates 1.24-1.39 fold)” and the “IL-2 secretion CD3/CD28 1 μM” value is reported as “A (A indicates >35 fold)”. Moreover, in assay [1], the “CD25 staining CD3 1 μM” value is given as “A (A indicates >2.5 fold)”, the “IL-2 secretion CD3 1 μM” value is recorded as “A (A indicates >1.1 fold)”, the “CD25 staining CD3 3 μM” value was “A (A indicates >2.5 fold)” and the “IL-2 secretion CD3 3 μM” value is on record as “A (A indicates >1.1 fold)”.

Consider `CC(c1cc2c(c(C(F)(F)F)c1)CN(c1cccc([C@@H](c3nncn3C)C3CCC3)c1)C2=O)N1CCC[C@H](C)C1` (stereo partly drawn) [Compound 16, 2-(3-((S)-cyclobutyl(4-methyl-4H-1,2,4-triazol-3-yl)methyl)phenyl)-6-(1-((S)-3-methylpiperidin-1-yl)ethyl)-4-(trifluoromethyl)isoindolin-1-one], for which, on Cbl-b (setting [2]), the IC50 was 20 to 100 nM. Further, the half-maximal inhibitory concentration (IC50) at Cbl-b (read-out: IC50 values in the Cbl-b inhibition assay of Biological Example 1) lay in the range of 20 to 100 nM. Moreover, in assay [1], the “IL-2 secretion CD3/CD28 0.3 μM” value is “C (C indicates <20 fold)”, the “IL-2 secretion CD3/CD28 1 μM” value is on record as “B (B indicates 20-35 fold)”, the “CD25 staining CD3 1 μM” value is reported as “A (A indicates >2.5 fold)” and the “IL-2 secretion CD3 1 μM” value is “B (B indicates 0.70-1.1 fold)”. Besides, in assay [1], the “CD25 staining CD3 3 μM” value is reported as “A (A indicates >2.5 fold)” and the “IL-2 secretion CD3 3 μM” value is “B (B indicates 0.70-1.1 fold)”.

Take `Cn1cnnc1C1(c2cccc(N3Cc4c(cc(CN5CCC[C@H](C(F)(F)F)C5)cc4C(F)(F)F)C3=O)c2)CC2(CC2)C1` [Compound 44, (S)-2-(3-(5-(4-methyl-4H-1,2,4-triazol-3-yl)spiro[2.3]hexan-5-yl)phenyl)-4-(trifluoromethyl)-6-((3-(trifluoromethyl)piperidin-1-yl)methyl)isoindolin-1-one]: the half-inhibitory concentration (IC50) at Cbl-b (setting [2]) was < 5 nM. In assay [1], the “IL-2 secretion CD3/CD28 0.3 μM” value is “B (B indicates 20-35 fold)”, the “IL-2 secretion CD3/CD28 1 μM” value is recorded as “A (A indicates >35 fold)”, the “CD25 staining CD3 1 μM” value was “A (A indicates >2.5 fold)” and the “IL-2 secretion CD3 1 μM” value is “A (A indicates >1.1 fold)”. Besides, in assay [1], the “CD25 staining CD3 3 μM” value is on record as “A (A indicates >2.5 fold)” and the “IL-2 secretion CD3 3 μM” value is reported as “A (A indicates >1.1 fold)”.
